From patent US4705786A, “Novel oxadiazolyl-1,4-dihydropyridines useful as antihypertensive agents” (Sumitomo Pharmaceuticals Company, Limited, priority 1984, dated 1987)
Structures can show the parent of a compound that is named as a salt.

Tests used:
[1] = molecular target: isolated strips of the descending aorta (Rattus norvegicus, UniProt P22002); experiment: cell-based; set-up: species or system Male Wistar rats; conditions: for Kb: isolated rat aorta, Ca2+ dose-response curves in 25 mM K+, Arunlakshana method, read-out: pA2 (converted)
Sequence of isolated strips of the descending aorta (P22002 whole entry): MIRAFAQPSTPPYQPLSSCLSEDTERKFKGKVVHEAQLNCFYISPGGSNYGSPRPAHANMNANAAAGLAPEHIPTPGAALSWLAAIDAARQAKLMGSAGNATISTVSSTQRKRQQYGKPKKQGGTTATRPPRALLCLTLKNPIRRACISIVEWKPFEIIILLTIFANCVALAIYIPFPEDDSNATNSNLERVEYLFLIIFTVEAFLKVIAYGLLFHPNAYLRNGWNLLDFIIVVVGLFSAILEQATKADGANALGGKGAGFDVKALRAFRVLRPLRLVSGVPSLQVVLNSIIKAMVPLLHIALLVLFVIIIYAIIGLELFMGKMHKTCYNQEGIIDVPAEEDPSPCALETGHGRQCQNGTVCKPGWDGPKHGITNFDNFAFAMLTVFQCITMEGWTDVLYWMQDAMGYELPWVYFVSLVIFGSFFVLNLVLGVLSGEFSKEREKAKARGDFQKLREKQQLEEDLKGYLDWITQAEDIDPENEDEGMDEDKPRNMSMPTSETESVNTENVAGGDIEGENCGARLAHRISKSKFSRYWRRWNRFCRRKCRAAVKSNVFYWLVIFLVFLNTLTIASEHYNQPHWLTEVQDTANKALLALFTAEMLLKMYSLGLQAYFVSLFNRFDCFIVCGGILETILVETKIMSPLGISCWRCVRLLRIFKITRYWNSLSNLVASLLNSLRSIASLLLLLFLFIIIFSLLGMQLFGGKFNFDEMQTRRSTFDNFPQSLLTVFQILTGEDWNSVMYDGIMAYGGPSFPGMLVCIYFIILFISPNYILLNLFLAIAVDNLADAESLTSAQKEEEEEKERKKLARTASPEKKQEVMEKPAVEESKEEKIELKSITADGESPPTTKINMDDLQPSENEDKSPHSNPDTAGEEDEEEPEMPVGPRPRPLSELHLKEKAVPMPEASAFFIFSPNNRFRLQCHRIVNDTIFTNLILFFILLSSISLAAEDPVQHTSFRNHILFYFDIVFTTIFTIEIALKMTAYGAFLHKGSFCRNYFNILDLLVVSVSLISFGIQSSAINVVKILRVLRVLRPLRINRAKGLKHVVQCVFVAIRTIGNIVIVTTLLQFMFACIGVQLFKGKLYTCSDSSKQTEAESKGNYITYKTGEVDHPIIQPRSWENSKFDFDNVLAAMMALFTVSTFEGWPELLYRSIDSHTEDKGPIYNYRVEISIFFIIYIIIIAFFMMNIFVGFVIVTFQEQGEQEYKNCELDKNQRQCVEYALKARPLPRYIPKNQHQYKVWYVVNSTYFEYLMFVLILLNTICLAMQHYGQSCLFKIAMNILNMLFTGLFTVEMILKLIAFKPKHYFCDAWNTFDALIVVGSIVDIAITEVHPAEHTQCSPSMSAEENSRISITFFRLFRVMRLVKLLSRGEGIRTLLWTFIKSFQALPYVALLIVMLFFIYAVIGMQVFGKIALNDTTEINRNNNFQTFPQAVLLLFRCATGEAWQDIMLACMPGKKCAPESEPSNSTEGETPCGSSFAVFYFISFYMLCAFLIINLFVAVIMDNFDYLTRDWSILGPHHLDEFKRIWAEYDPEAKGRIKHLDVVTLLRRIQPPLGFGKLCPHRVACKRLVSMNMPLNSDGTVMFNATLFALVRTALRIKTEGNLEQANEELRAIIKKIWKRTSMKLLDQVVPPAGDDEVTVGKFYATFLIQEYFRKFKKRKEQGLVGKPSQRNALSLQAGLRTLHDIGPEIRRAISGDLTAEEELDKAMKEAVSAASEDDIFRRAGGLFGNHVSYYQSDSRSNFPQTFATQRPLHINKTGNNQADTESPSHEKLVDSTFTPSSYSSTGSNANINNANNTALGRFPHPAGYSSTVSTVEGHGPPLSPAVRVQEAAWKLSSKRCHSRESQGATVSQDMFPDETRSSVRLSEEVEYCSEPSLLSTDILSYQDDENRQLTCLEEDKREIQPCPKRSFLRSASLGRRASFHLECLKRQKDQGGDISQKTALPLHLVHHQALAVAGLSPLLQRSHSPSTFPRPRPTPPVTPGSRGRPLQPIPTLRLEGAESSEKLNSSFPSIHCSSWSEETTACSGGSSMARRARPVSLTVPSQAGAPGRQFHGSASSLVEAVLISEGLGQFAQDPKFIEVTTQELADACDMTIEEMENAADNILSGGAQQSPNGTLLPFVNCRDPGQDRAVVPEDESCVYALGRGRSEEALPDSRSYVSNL
Sequence of isolated strips of the descending aorta (P54290 25-944 partner limits assumed): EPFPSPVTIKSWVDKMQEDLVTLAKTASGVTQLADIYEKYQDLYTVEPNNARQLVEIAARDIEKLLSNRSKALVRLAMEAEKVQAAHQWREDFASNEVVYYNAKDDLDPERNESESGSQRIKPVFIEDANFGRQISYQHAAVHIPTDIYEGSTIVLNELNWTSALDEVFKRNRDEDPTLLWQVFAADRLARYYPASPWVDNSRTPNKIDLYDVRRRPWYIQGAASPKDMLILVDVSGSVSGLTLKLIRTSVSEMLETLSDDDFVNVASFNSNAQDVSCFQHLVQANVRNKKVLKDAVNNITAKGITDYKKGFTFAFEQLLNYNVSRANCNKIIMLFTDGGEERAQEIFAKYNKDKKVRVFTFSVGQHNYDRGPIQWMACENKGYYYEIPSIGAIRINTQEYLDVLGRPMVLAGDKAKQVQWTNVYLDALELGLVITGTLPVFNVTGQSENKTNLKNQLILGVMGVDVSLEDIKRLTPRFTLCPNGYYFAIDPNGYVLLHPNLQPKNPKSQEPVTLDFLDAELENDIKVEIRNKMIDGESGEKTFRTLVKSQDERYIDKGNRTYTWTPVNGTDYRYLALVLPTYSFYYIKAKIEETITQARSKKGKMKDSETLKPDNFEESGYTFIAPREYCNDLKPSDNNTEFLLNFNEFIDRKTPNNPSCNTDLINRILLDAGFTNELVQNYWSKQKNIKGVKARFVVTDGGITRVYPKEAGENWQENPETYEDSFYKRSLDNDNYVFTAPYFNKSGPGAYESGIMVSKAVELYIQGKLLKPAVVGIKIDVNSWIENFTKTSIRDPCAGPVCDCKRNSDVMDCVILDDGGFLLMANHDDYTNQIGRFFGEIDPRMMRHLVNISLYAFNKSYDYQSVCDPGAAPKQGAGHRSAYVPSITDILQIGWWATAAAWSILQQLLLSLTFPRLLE
Sequence of isolated strips of the descending aorta (P54290 945-1091 partner limits assumed): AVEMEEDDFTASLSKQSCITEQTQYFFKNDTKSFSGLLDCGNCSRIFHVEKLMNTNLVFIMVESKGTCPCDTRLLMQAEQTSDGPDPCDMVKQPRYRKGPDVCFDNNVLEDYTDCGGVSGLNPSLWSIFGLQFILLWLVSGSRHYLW
Procedure: The in vitro calcium antagonistic activity of the subject compounds of the formula (I) was evaluated according to substantially the same method as that of Toda et al., J. Pharmacol. Exp. Ther. 181, 512 (1972) and ibid., 191, 139 (1974).
Male Wistar rats weighing 300-400 g were stunned by a sharp blow to the head. The isolated strips of the descending aorta were-fixed vartically in a 50 ml organ both containing Krebs-Henseleit solution maintained at 37° C. and saturated with a 95% O2 +5% CO2 gas mixture. Isometric tension was measured with a foree-displacement transducer and recorded on a polygraph recorder. During a 60-90 min equilibration period the resting tension was repeatedly adjusted to 1 g. The vessels having ability to potassium-induced contractions were exposed to a Ca^2+ -free medium for 30 min and then to 25 mM K^+ solution. When a contractile plateau was reached, Ca^2+ was added, and the cumulative response to 0.25, 0.5 and 4 mM Ca^2+ was recorded. After wash-out and a equilibration period with renewed testing of contractile ability, the preparations were once more exposed to Ca^2+ -free medium. The test compound was added to the organ bath 5 min before administration of potassium. Calcium was cumulatively added once again and the contractile response so obtained was expressed in percent of the contraction elicited by 4 mM Ca^2+. Dose-response curves for Ca^2+ were carried out cumulatively in the absence or presence of increasing concentrations of test compound. The pA2 values were calculated by the method of Arunlakshana et al., Brit. J. Pharmacol., 14, 48 (1959).

[2] = test system: isolated rabbit aortic strip; experiment: inhibition of norepinephrine-induced contractions of isolated rabbit aortic strip potentiated by ouabain; assay type: cell-based; conditions: Oryctolagus cuniculus, read-out: concentration at which norepinephrine-induced contractions are inhibited
[3] = test system: SHR; experiment: 4 weeks administration to SHR, hypotensive potency; assay type: in vivo, spontaneous hypertensive rats (SHR); conditions: 15 mg/kg/day po
Procedure: The hypotensive potency of the compound D was also compared with that of nicardipine by administering to the SHR for 4 weeks at 15 mg/kg/day, po.

[4] = test system: spontaneous hypertensive rats (SHR); experiment: single oral administration to spontaneous hypertensive rats (SHR), antihypertensive activity; assay type: in vivo; conditions: compound D 1 mg/kg vs nicardipine 3 mg/kg
[5] = test system: physiological saline loaded rats; experiment: diuretic activity in physiological saline loaded rats; assay type: in vivo; conditions: compound D 3 mg/kg po vs nicardipine 10 mg/kg po
[6] = test system: mean arterial blood pressure; experiment: antihypertensive vasodilating activity in anesthetized, ganglion-blocked rats with blood pressure maintained by intravenous angiotensin II; assay type: in vivo; conditions: 0.01 mg/kg and 0.003 mg/kg
Procedure: The anesthetized and ganglion-blocked rats whose blood pressure were maintained by an intravenous infusion of angiotensin II were prepared and the test compounds were evaluated according to substantially the same method as that of Deitchman et al., J. Pharmacol Methods, 3, 311 (1980).

| Structure (SMILES) | Kb [1] | minimal effective concentration [2] | further results |
| --- | --- | --- | --- |
| COC(=O)C1=C(C)NC(C)=C(c2nc(CN3CCCCC3)no2)C1c1cccc([N+](=O)[O-])c1 (centres unmarked) [A, Methyl 1,4-dihydro-2,6-dimethyl-3-(3-piperidinomethyl-1,2,4-oxadiazol-5-yl)-4-(3-nitrophenyl)pyridine-5-carboxylate hydrochloride] | 0.0309 nM | – | – |
| COC(=O)C1=C(C)NC(C)=C(c2nc(CN3CCCCC3)no2)C1c1ccccc1 (centres unmarked) [B, Methyl 1,4-dihydro-2,6-dimethyl-3-(3-piperidinomethyl-1,2,4-oxadiazol-5-yl)-4-phenylpyridine-5-carboxylate hydrochloride] | 0.363 nM | – | – |
| COC(=O)C1=C(C)NC(C)=C(c2nc(CN3CCCCC3)no2)C1c1ccc(Cl)c(Cl)c1 (centres unmarked) [C, Methyl 1,4-dihydro-2,6-dimethyl-3-(3-piperidinomethyl-1,2,4-oxadiazol-5-yl)-4-(3,4-dichlorophenyl)pyridine-5-carboxylate hydrochloride] | 0.129 nM | – | – |
| COC(=O)C1=C(C)NC(C)=C(c2nc(C)no2)C1c1cccc([N+](=O)[O-])c1 (centres unmarked) [Compound R1, Methyl 1,4-dihydro-2,6-dimethyl-3-(3-methyl-1,2,4-oxadiazol-5-yl)-4-(3-nitrophenyl)pyridine-5-carboxylate, reference compound] | 32.4 nM | – | calcium antagonistic potency: times less potent than the subject compounds ([1]; R1 compared with compounds A-G): 100-1000 times |
| COC(=O)C1=C(C)NC(C)=C(C(=O)OCCN(C)Cc2ccccc2)C1c1cccc([N+](=O)[O-])c1 (centres unmarked) [Compound R3, 2-(N--Benzyl-N--methylamino)ethyl methyl 1,4-dihydro-2,6-dimethyl-4-(3-nitrophenyl)pyridine-3,5-dicarboxylate, reference compound] | 0.417 nM | > 0.1 µM | antihypertensive activity on 4 weeks administration [3]: no significant effects |
| COC(=O)C1=C(C)NC(C)=C(c2nc(CN(C)Cc3ccccc3)no2)C1c1cccc([N+](=O)[O-])c1 (centres unmarked) [D, Methyl 1,4-dihydro-2,6-dimethyl-3-[3-(N--benzyl-N--methylamino)methyl-1,2,4-oxadiazol-5-yl]-4-(3-nitrophenyl)-pyridine-5-carboxylate hydrochloride] | 0.186 nM | 0.01 µM | antihypertensive activity in SHR [4]: about the same antihypertensive activity as that of nicardipine 3 mg/kg; duration of antihypertensive effect in SHR [4]: continued much longer than that of nicardipine; antihypertensive activity on 4 weeks administration [3]: apparent antihypertensive activity; heart rate [3]: slight decrease of heart rate; diuretic activity [5]: about the same diuretic activity as that of nicardipine 10 mg/kg, po; antihypertensive effects in comparison with nifedipine and nicardipine [6]: dose-dependently more potent and long acting antihypertensive effects in comparison with nifedipine and nicardipine |
| COC(=O)C1=C(C)NC(C)=C(c2nc(CNC(C)c3ccccc3)no2)C1c1cccc([N+](=O)[O-])c1 (stereo not drawn) [E, Methyl 1,4-dihydro-2,6-dimethyl-3-[3-(α-methylbenzylamino)methyl-1,2,4-oxadiazol-5-yl]-4-(3-nitrophenyl)-pyridine-5-carboxylate citrate] | 0.0457 nM | – | – |
| COC(=O)C1=C(C)NC(C)=C(c2nc(CN(C)CCc3ccc(OC)c(OC)c3)no2)C1c1cccc([N+](=O)[O-])c1 (centres unmarked) [F, Methyl 1,4-dihydro-2,6-dimethyl-3-[3-[N--(3,4-dimethoxyphenethyl)-N--methyl-amino]methyl-1,2,4-oxadiazol-5-yl]-4-(3-nitrophenyl)pyridine-5-carboxylate hydrochloride] | 0.0955 nM | 0.01 µM | – |
| CC1=C(C(=O)OC(C)C)C(c2cccc([N+](=O)[O-])c2)C(c2nc(CN(C)Cc3ccccc3)no2)=C(C)N1 (centres unmarked) [G, Isopropyl 1,4-dihydro-2,6-dimethyl-3-[3-(N--benzyl-N--methylamino)methyl-1,2,4-oxadiazol-5-yl]-4-(3-nitrophenyl)-pyridine-5-carboxylate hydrochloride] | 0.355 nM | – | – |
